Laboratory results: paper PMC12838157, “A Multikinase Inhibitor AX-0085 Blocks FGFR1 Activation to Overcomes Osimertinib Resistance in Non-Small Cell Lung Cancer” (Biomedicines, 2025)

How the values were obtained:
[1] = target: FGFR1 (fibroblast growth factor receptor 1) (Homo sapiens, UniProt P11362); assay: kinase assay IC50 (called cell-based kinase assay in the Figure […] legend); also reduced phospho-FGFR1 in HCC827-osi cells
AXL = target: T1, AXL (Homo sapiens, UniProt P30530); assay: kinase assay IC50 (called cell-based kinase assay in the Figure […] legend); also reduced phospho-AXL in HCC827-osi cells
T1 sequence (P30530 26-894): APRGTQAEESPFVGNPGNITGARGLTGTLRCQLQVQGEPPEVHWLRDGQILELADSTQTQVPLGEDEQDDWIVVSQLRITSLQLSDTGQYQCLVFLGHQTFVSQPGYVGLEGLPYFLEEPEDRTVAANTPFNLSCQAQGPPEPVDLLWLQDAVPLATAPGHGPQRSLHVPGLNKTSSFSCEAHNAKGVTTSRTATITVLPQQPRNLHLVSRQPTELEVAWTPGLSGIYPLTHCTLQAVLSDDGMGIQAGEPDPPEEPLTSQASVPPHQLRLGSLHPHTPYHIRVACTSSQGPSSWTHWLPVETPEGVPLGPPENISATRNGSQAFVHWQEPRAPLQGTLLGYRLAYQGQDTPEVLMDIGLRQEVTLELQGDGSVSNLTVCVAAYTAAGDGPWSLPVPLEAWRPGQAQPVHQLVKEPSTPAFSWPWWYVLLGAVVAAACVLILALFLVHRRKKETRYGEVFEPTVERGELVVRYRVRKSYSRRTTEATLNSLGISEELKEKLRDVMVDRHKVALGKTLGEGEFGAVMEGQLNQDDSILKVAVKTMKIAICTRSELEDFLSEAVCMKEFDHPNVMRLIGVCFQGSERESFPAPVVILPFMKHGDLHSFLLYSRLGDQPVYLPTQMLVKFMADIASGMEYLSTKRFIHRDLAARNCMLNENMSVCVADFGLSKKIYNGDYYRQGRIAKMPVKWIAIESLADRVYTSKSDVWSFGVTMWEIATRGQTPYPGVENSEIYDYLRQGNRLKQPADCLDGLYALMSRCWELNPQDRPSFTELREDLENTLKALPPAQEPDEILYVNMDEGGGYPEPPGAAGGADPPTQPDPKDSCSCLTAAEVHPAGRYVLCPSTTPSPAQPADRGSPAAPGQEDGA

Sequence of FGFR1 (fibroblast growth factor receptor 1) (P11362 22-822): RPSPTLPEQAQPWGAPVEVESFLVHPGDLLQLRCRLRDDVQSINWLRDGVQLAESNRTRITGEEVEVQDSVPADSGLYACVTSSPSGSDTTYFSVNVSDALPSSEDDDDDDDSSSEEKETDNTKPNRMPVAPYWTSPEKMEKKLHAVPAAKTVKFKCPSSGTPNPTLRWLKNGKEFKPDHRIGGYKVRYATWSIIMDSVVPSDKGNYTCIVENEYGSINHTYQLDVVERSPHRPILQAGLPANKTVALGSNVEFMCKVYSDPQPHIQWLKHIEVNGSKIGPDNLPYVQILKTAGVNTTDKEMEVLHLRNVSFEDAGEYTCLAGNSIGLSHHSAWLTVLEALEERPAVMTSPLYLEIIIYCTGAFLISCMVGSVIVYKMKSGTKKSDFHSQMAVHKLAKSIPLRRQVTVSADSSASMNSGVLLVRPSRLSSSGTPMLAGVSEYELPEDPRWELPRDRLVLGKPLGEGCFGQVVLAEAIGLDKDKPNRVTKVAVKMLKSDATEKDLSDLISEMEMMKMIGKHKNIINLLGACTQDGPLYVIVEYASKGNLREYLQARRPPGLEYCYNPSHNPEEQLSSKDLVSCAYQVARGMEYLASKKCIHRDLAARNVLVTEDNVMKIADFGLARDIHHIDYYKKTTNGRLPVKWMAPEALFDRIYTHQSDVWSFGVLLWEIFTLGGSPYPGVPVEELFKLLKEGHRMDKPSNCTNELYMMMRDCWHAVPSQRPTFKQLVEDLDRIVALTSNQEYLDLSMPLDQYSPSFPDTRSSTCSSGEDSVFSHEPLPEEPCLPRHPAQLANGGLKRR

- IC50 [1]: 2.2 nM
- IC50 (AXL): 4.4 nM
SMILES: CN1C(=O)N(c2cc(NC(=O)c3cccc(C(F)(F)F)c3)cnc2Cl)Cc2cnc(Nc3ccccc3)nc21 [AX-0085]
